Measured values from ChEMBL document CHEMBL4390641, “Design, synthesis and biological evaluation of amide-pyridine derivatives as novel dual-target (SE, CYP51) antifungal inhibitors” (2019).
Activity calls are given as the source filed them. The calls are words filed in the database; no cut-off is given here.

Legend:
Nakaseomyces glabratus = assay: Antifungal activity against Candida glabrata ATCC 0001 assessed as inhibition of microbial growth by NCCLS protocol based method; format: functional
Aspergillus fumigatus = assay: Antifungal activity against Aspergillus fumigatus KM8001 assessed as inhibition of microbial growth by NCCLS protocol based method; format: functional
Candida tropicalis = assay: Antifungal activity against Candida tropicalis ATCC 1369 assessed as inhibition of microbial growth by NCCLS protocol based method; format: functional
Pichia kudriavzevii = assay: Antifungal activity against Candida krusei ATCC 6258 assessed as inhibition of microbial growth by NCCLS protocol based method; format: functional
Candida albicans [1] = assay: Antifungal activity against Candida albicans ATCC 10231 assessed as inhibition of microbial growth by NCCLS protocol based method; format: functional
Candida albicans [2] = assay: Antifungal activity against Candida albicans assessed as induction of microbial cell killing at 25 to 250 nM/mL by polarizing microscopy; format: functional, organism-based
Candida albicans [3] = assay: Antifungal activity against fluconazole-resistant Candida albicans 100 assessed as inhibition of microbial growth by NCCLS protocol based method; format: functional
Candida albicans [4] = assay: Antifungal activity against fluconazole-resistant Candida albicans 103 assessed as inhibition of microbial growth by NCCLS protocol based method; format: functional
Candida albicans [5] = assay: Antifungal activity against Candida albicans assessed as reduction in cell division at 25 to 250 nM/mL by polarizing microscopy; format: functional, organism-based
Candida albicans [6] = assay: Antifungal activity against Candida albicans assessed as inhibition of microbial growth at 25 to 250 nM/mL by polarizing microscopy; format: functional, organism-based
Candida albicans [7] = assay: Antifungal activity against Candida albicans assessed as inhibition of microbial growth at 2.5 nM/mL by polarizing microscopy; format: functional, organism-based
Candida albicans [8] = assay: Antifungal activity against Candida albicans assessed as induction of cell fracture at 2.5 nM/mL by polarizing microscopy; format: functional, organism-based
Candida albicans [9] = assay: Antifungal activity against Candida albicans assessed as reduction in proportion of microbes at cell division phase at 25 to 250 nM/mL by polarizing microscopy; format: functional, organism-based
Candida albicans [10] = assay: Antifungal activity against Candida albicans assessed as reduction in cell volume at 25 to 250 nM/mL by polarizing microscopy; format: functional, organism-based
Candida albicans [11] = assay: Inhibition of SE/CYP51 in Candida albicans ATCC SC5314 assessed as effect on sterol composition by measuring Eburicol level at 16 ug/ml incubated for 90 mins by HPLC analysis (reference value: 8.3%); set-up: scale not given: the % may be the effect or the level left
Candida albicans [12] = assay: Inhibition of SE/CYP51 in Candida albicans ATCC SC5314 assessed as effect on sterol composition by measuring Unidentified sterol level at 16 ug/ml incubated for 90 mins by HPLC analysis (reference value: 16.51%); set-up: scale not given: the % may be the effect or the level left
Candida albicans [13] = assay: Inhibition of SE/CYP51 in Candida albicans ATCC SC5314 assessed as effect on sterol composition by measuring Lanosterol level at 16 ug/ml incubated for 90 mins by HPLC analysis (reference value: 10.99%); set-up: scale not given: the % may be the effect or the level left
Candida albicans [14] = assay: Inhibition of SE/CYP51 in Candida albicans ATCC SC5314 assessed as effect on sterol composition by measuring Squalene level at 16 ug/ml incubated for 90 mins by HPLC analysis; set-up: scale not given: the % may be the effect or the level left
Candida albicans [15] = assay: Inhibition of SE/CYP51 in Candida albicans ATCC SC5314 assessed as effect on sterol composition by measuring ergosterol level at 16 ug/ml incubated for 90 mins by HPLC analysis (reference value: 64.2%); set-up: scale not given: the % may be the effect or the level left
Heme [16] = assay: Binding affinity to heme by UV-Visible spectroscopy
Heme [17] = assay: Binding affinity to heme by fluorescence spectrum analysis

SMILES	MIC (Nakaseomyces glabratus) [µg/mL]	MIC (Aspergillus fumigatus) [µg/mL]	MIC (Candida tropicalis) [µg/mL]	MIC (Pichia kudriavzevii) [µg/mL]	MIC (Candida albicans [1]) [µg/mL]	further results
CC(C)[C@H](NC(=O)c1ccc2ccccc2c1)C(=O)NCc1cccnc1	2	> 16	2	4	8	–
CC(C)[C@H](NC(=O)c1ccc2ccccc2c1)C(=O)NCc1ccncc1	0.5	8	2	0.5	2	–
O=C(N[C@H](C(=O)NCc1ccncc1)c1ccccc1)c1ccc2ccccc2n1	> 16	> 16	> 16	4	2	–
O=C(CNC(=O)c1ccc2ccccc2c1)NCc1ccncc1	0.25	2	0.5	1	0.25	–
C[C@H](NC(=O)c1ccc2ccccc2c1)C(=O)NCc1ccncc1	1	2	0.25	0.5	0.25	–
O=C(CNC(=O)c1ccc2ccccc2n1)NCc1cccnc1	2	2	1	0.5	0.5	–
O=C(N[C@H](C(=O)NCc1cccnc1)c1ccccc1)c1ccc2ccccc2n1	4	> 16	2	> 16	8	–
O=C(CNC(=O)c1ccc2ccccc2c1)NCc1cccnc1	4	> 16	0.5	2	1	–
O=C(CNC(=O)c1ccc2ccccc2n1)NCc1ccncc1	0.5	2	0.125	0.5	0.25	Activity (Candida albicans [2]): Active; MIC (Candida albicans [3]): 2 µg/mL; MIC (Candida albicans [4]): 1 µg/mL; Activity (Candida albicans [5]): Active; growth inhibition (GI) (Candida albicans [6]): Active; growth inhibition (GI) (Candida albicans [7]): Active; Activity (Candida albicans [8]): Active; Activity (Candida albicans [9]): Active; Activity (Candida albicans [10]): Active
O=C(N[C@H](C(=O)NCc1ccncc1)c1ccccc1)c1ccc2ccccc2c1	8	> 16	> 16	4	4	–
C[C@H](NC(=O)c1ccc2ccccc2n1)C(=O)NCc1cccnc1	0.25	8	0.5	2	1	–
CC(C)[C@H](NC(=O)c1ccc2ccccc2n1)C(=O)NCc1cccnc1	0.5	4	2	1	0.5	–
C[C@H](NC(=O)c1ccc2ccccc2c1)C(=O)NCc1cccnc1	1	4	2	0.5	0.5	–
O=C(N[C@H](C(=O)NCc1cccnc1)c1ccccc1)c1ccc2ccccc2c1	> 16	> 16	8	8	> 16	–
CN(C/C=C/C#CC(C)(C)C)Cc1cccc2ccccc12 [TERBINAFINE]	1	2	2	0.5	0.25	Activity (Candida albicans [11]): 21.9%; Activity (Candida albicans [2]): Active; MIC (Candida albicans [3]): 8 µg/mL; MIC (Candida albicans [4]): 4 µg/mL; Activity (Candida albicans [5]): Active; Activity (Candida albicans [12]): 7.27%; growth inhibition (GI) (Candida albicans [6]): Active; growth inhibition (GI) (Candida albicans [7]): inactive; Activity (Candida albicans [9]): Active; Activity (Candida albicans [13]): 22.4%; Activity (Candida albicans [14]): 37.8%; Activity (Candida albicans [15]): 10.6%; Activity (Candida albicans [10]): Active
OC(Cn1cncn1)(Cn1cncn1)c1ccc(F)cc1F [FLUCONAZOLE]	1	> 16	2	0.5	0.5	Activity (Candida albicans [11]): 39.5%; Activity (Candida albicans [2]): Active; Activity (Heme [16]): Active; MIC (Candida albicans [3]): > 16 µg/mL; MIC (Candida albicans [4]): > 16 µg/mL; Activity (Candida albicans [5]): Active; growth inhibition (GI) (Candida albicans [6]): Active; growth inhibition (GI) (Candida albicans [7]): inactive; Activity (Candida albicans [9]): Active; Activity (Candida albicans [13]): 49.2%; Activity (Candida albicans [15]): 11.3%; Activity (Candida albicans [10]): Active
C[C@H](NC(=O)c1ccc2ccccc2n1)C(=O)NCc1ccncc1	0.125	1	0.25	0.25	0.125	Activity (Candida albicans [11]): 27.4%; Activity (Candida albicans [2]): Active; Activity (Heme [16]): Active; MIC (Candida albicans [3]): 0.5 µg/mL; MIC (Candida albicans [4]): 2 µg/mL; Activity (Candida albicans [5]): Active; growth inhibition (GI) (Candida albicans [6]): Active; growth inhibition (GI) (Candida albicans [7]): Active; Activity (Candida albicans [8]): Active; Activity (Heme [17]): Dose-dependent effect; Activity (Candida albicans [9]): Active; Activity (Candida albicans [13]): 50.1%; Activity (Candida albicans [14]): 13.4%; Activity (Candida albicans [15]): 9.02%; Activity (Candida albicans [10]): Active
CC(C)[C@H](NC(=O)c1ccc2ccccc2n1)C(=O)NCc1ccncc1	2	> 16	4	0.5	0.5	–
